Test results taken from US10053443B2, “2-phenylbenzofuran derivatives, method for preparing the same and use of the same for treating inflammatory disease” (KOREA RESEARCH INSTITUTE OF BIOSCIENCE AND BIOTECHNOLOGY, priority 2014, dated 2018).

Assays:
Assay type in all cases: in vivo, mouse
[1] = system: interleukin 13; assay: Interleukin 13 in bronchoalveolar lavage fluid of asthma mice (ELISA); settings: OVA asthma Balb/c mice, 5 or 15 mg/kg PO, FIG. 3
Description: (§1) 6 week old Balb/c female mice in the average weight of 20 g were adapted for 1 week. 2 mg of aluminum hydroxide (A8222, Sigma, St. Louis, Mo.) and 20 μg of ovalbumin (A5503, sigma, St. Louis, Mo.) were suspended in phosphate buffer (pH 7.4). Each mouse was administered with 200 μl of the phosphate buffer suspension via intraperitoneal injection for sensitization at 2 weeks intervals. The mouse was forced to inhale 1% ovalbumin (OVA) through ultrasonic atomizer for 30 minutes a day for 3 days after the first intraperitoneal injection of ovalbumin. 24 hours after the antigen administration, airway hyperreactivity was measured. 48 hours later, a lethal dose of pentobarbital (Entobar, Hanlim Pharma. Co., Ltd.) was administered to the mouse. The bronchus was opened and the alveoli were washed with 1.4 ml of saline. Then, the test samples were obtained. The normal control (NC) was not administered with ovalbumin nor inhaled. The asthma induced group (OVA) was administered with ovalbumin and inhaled to induce bronchial asthma. […]
After performing the experiment of Experimental Example <3-1> above, Th2 cytokine (interleukin 5, 13) in bronchoalveolar was measured by sandwich type enzyme immunoassay. […] The content of each cytokine was measured using the kit according to the manufacturer's instruction.

[2] = system: bronchial asthma induced animal model; assay: Airway hyperreactivity (Penh) in ovalbumin-induced bronchial asthma mice; settings: OVA asthma Balb/c mice, 5 or 15 mg/kg PO, FIG. 1
Description: as §1, with “inhaled.” for “inhaled. The asthma induced group (OVA) was administered with ovalbumin and inhaled to induce bronchial asthma.”
After performing the experiment of Experimental Example <3-1> above, airway resistance was measured by using one chamber plethysmography (All Medicus, Seoul) to obtain Penh (enhanced pause) values which were the mathematically calculated numbers reflecting airway obstruction in order to measure airway hyperreactivity. To measure Penh value, basal value in normal breathing status was first measured. […]

[3] = system: lung tissue sections; assay: Histopathological analysis of lung (H&E, PAS) in asthma mice; settings: OVA asthma Balb/c mice, 5 or 15 mg/kg PO
Description: as §1
To evaluate the level of mucus production by investigating the increase of the number of goblet cells, the mucus secretion cells, the lung was extracted from the mouse without bronchoalveolar lavage. […] The proliferation of goblet cells was evaluated by measuring the ratio of the goblet cells selected by the staining above in bronchial epithelial cells.

[4] = system: inflammatory cells (eosinophils); assay: Number of inflammatory cells in bronchoalveolar lavage fluid (Diff-Quick); settings: OVA asthma Balb/c mice, 5 or 15 mg/kg PO, FIG. 5
Description: as §1, with “asthma. The comparative control was orally administered with dexamethasone (2 mg/kg, PO) one hour before the inhalation (DEX).” for “asthma.”
After performing the experiment of Experimental Example <3-1> above, the number of inflammatory cells in bronchoalveolar lavage fluid was measured by Diff-Quick staining.

With `COc1cc(CCCO)cc2cc(-c3ccc(C)cc3)oc12` [Example 4, 3-(7-methoxy-2-p-tolylbenzofuran-5-yl)propane-1-ol] the “content of interleukin 13 in bronchoalveolar lavage fluid” value [1] was “significantly reduced”, the “Penh value (airway hyperreactivity)” value [2] was “significantly reduced” and the “accumulation of inflammatory cells around bronchiole (H&E)” value ([3]; FIG. 6) was “significantly reduced”. The “proliferation of goblet cells (PAS, mucus production)” value ([3]; FIG. 7) was “significantly reduced” and the “infiltration of inflammatory cells (eosinophils) in bronchoalveolar lavage fluid” value [4] was “efficiently reduce”.
